Experimental data reported in PMC165446 (BMC Microbiology, 2003).

Biological target: T1, methionine adenosyltransferase (MAT; S-adenosylmethionine synthetase) (Mycolicibacterium smegmatis, UniProt A0QWT3)
T1 sequence (A0QWT3 1-399): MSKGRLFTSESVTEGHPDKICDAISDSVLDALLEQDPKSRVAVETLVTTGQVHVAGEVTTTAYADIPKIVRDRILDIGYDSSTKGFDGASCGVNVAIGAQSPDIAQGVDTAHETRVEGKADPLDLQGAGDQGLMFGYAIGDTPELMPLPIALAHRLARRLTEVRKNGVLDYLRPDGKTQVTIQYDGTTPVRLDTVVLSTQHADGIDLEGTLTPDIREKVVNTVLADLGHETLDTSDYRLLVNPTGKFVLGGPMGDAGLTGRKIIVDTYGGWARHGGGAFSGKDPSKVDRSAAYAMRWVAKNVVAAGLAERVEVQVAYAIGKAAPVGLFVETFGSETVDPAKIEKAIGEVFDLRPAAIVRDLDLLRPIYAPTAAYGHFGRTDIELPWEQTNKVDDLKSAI
Experiment: HPLC assay of SAM formation, Dixon plots with varied ATP
Assay type: biochemical

Row | SMILES | Ki
1 | Cn1cnc([N+](=O)[O-])c1Sc1ncnc2nc[nH]c12 [azathioprine] | 3.74 ± 1 mM
2 | Nc1nc2nn[nH]c2c(=O)[nH]1 [8-azaguanine] | 4.7 ± 0.77 mM
